In patent publication US20030129222A1, “Liposomal imexon” (priority 2000, published 2003):
Where two headings read alike, the source gives them in different places.

Experiments:
L1210 leukemia, Mdr = experiment: Cytotoxicity in tumor cell culture, MTT assay; type: cell-based, murine; settings: MTT assay, multidrug-resistant; read-out: IC50 against human mouse tumors, L1210 leukemia Mdr
Description: (§1) Relative potencies of the N-substituted 2-cyanoaziridine-1-carboxamides in a panel of tumor cell cultures are compared in Table 3. This panel includes the following lines of human tumor cells: sensitive and imexon-resistant lines of multiple myeloma (Matsuoka et al., 1967); ovarian carcinoma resistant to standard drugs (Hamilton et al., 1984); melanoma with a slow growth fraction (Girard et al., 1973); breast carcinoma including sensitive, doxorubicin-resistant (P-glycoprotein-positive) (Taylor et al., 1991), and mitoxantrone-resistant (P-glycoprotein-negative) (Futscher et al., 1994) lines; sensitive and multidrug-resistant colon carcinoma (Noguchi et al., 1979; Dalton et al., 1988); and multidrug-resistant lung carcinoma (P-glycoprotein-negative) (Girard et al., 1973). It also has sensitive (Goldin et al., 1961) and multidrug-resistant (P-glycoprotein-positive) (Salmon and Hersh, 1994) murine L1210 leukemia cells.

L1210 leukemia, Sens = experiment: Cytotoxicity in tumor cell culture, MTT assay; type: cell-based, murine; settings: MTT assay; read-out: IC50 against human mouse tumors, L1210 leukemia Sens
Description: as §1

[1] = test system: 8226 myeloma, Sens (drug-sensitive); experiment: Cytotoxicity in tumor cell culture, SRB assay; type: cell-based, human
Description: as §1

A-549 lung = experiment: Cytotoxicity in tumor cell culture, SRB assay; type: cell-based, human; settings: read-out: IC50 against human mouse tumors, A-549 lung
Description: as §1

A375 melan = experiment: Cytotoxicity in tumor cell culture, SRB assay; type: cell-based, human; settings: read-out: IC50 against human mouse tumors, A375 melan
Description: as §1

[2] = test system: MCF7 breast, Dox (doxorubicin-resistant); experiment: Cytotoxicity in tumor cell culture, SRB assay; type: cell-based, human; settings: doxorubicin-resistant; read-out: IC50 against human mouse tumors, MCF7 breast Dox
Description: as §1

MCF7 breast, Sens = experiment: Cytotoxicity in tumor cell culture, SRB assay; type: cell-based, human; settings: read-out: IC50 against human mouse tumors, MCF7 breast Sens
Description: as §1

[3] = test system: MCF7 breast, mitox (mitoxantrone-resistant); experiment: Cytotoxicity in tumor cell culture, SRB assay; type: cell-based, human; settings: mitoxantrone-resistant; read-out: IC50 against human mouse tumors, MCF7 breast mitox
Description: as §1

OVCAR3 ovarian = experiment: Cytotoxicity in tumor cell culture, SRB assay; type: cell-based, human; settings: read-out: IC50 against human mouse tumors, OVCAR3 ovarian
Description: as §1

[4] = test system: 8226 myeloma, Res (imexon-resistant); experiment: Cytotoxicity in tumor cell culture, SRB assay; type: cell-based; settings: line made resistant to imexon; read-out: IC50 against human mouse tumors, 8226 myeloma Res
Description: as §1

WiDr colon, Sens = experiment: Cytotoxicity in tumor cell culture, SRB assay; type: cell-based; settings: read-out: IC50 against human mouse tumors, WiDr colon Sens
Description: as §1

WiDr colon, res = experiment: Cytotoxicity in tumor cell culture, SRB assay; type: cell-based; settings: multidrug-resistant; read-out: IC50 against human mouse tumors, WiDr colon res
Description: as §1

[5] = substituent constant, from Hansch and Leo or calculated using Clog P software; cited from earlier work
[6] = against sensitive myeloma, values repeated from Table 3 (μM there), read-out: IC50
[7] = drug-sensitive line, read-out: IC50 against human mouse tumors, 8226 myeloma Sens

| Structure (SMILES) | IC50 (L1210 leukemia, Mdr) | IC50 (L1210 leukemia, Sens) | Log(1/C) ([1]; against sensitive myeloma) | IC50 [1, 6] | IC50 [1, 7] | IC50 (A-549 lung) | IC50 (A375 melan) | IC50 [2] | IC50 (MCF7 breast, Sens) | IC50 [3] | IC50 (OVCAR3 ovarian) | IC50 [4] | IC50 (WiDr colon, Sens) | IC50 (WiDr colon, res) | π [5] |
| --- | --- | --- | --- | --- | --- | --- | --- | --- | --- | --- | --- | --- | --- | --- | --- |
| CCNC(=O)N1CC1C#N (centres unmarked) [Compound 7, 2-Cyanoaziridine-1-(N-ethyl) carboxamide] | 14 µM | 14 µM | 4.66 | 22 µM | 22 µM | 18 µM | 36 µM | 20 µM | 29 µM | 10 µM | 14 µM | 26 µM | 4 µM | 7 µM | 1.02 |
| CCCCNC(=O)N1CC1C#N (centres unmarked) [Compound 8, 2-Cyanoaziridine-1-(N-butyl) carboxamide] | 12 µM | 12 µM | 4.77 | 17 µM | 17 µM | 18 µM | 15 µM | 6.7 µM | > 12 µM | > 12 µM | 12 µM | 17 µM | 14 µM | 18 µM | 2.00 |
| CC(C)(C)NC(=O)N1CC1C#N (centres unmarked) [Compound 9, 2-Cyanoaziridine-1-(N-t-butyl) carboxamide] | 457 µM | 132 µM | 3.92 | 120 µM | 120 µM | 180 µM | 418 µM | 190 µM | > 300 µM | 120 µM | 186 µM | 216 µM | 180 µM | > 300 µM | 1.98 |
| N#CC1CN1C(=O)NC1CCCCC1 (centres unmarked) [Compound 10, 2-Cyanoaziridine-1-(N-cyclohexyl) carboxamide] | 16 µM | 7.4 µM | 4.44 | 36 µM | 36 µM | 10 µM | 35 µM | 8.9 µM | 13 µM | 9.8 µM | 31 µM | 98 µM | 2.4 µM | 12 µM | 2.51 |
| N#CC1CN1C(=O)NCc1ccccc1 (centres unmarked) [Compound 11, 2-Cyanoaziridine-1-(N-benzyl) carboxamide] | 10 µM | 3.8 µM | 5.05 | 9 µM | 9 µM | 7.4 µM | 11 µM | 6 µM | 7.4 µM | 3.4 µM | 5 µM | 11 µM | 5.3 µM | 10 µM | 2.50 |
| CCOC(=O)CNC(=O)N1CC1C#N (centres unmarked) [Compound 12] | 13 µM | 13 µM | 4.60 | 25 µM | 25 µM | 24 µM | 51 µM | 17 µM | 15 µM | 11 µM |  | 30 µM | 31 µM | 33 µM | 1.01 |
| N#CC1CN1C(=O)Nc1ccc(F)cc1 (centres unmarked) [Compound 14, 2-Cyanoaziridine-1-[N-(4-fluorophenyl)]carboxamide] | 5.9 µM | 7.3 µM | 5.30 | 5 µM | 5 µM | 6.2 µM | 3.4 µM | 2.4 µM | 1.9 µM | 2.7 µM | 5.9 µM | 5.9 µM | 2.1 µM | 9 µM | 2.14 |
| N#CC1CN1C(=O)Nc1ccc(C(F)(F)F)cc1 (centres unmarked) [Compound 15, 2-Cyanoaziridine-1-[N-(4-trifluorophenyl)]carboxamide] | 7.1 µM | 7.8 µM | 5.09 | 8.2 µM | 8.2 µM | 4.3 µM | 11.8 µM | 1.4 µM | 1.5 µM | 1.3 µM | 5.9 µM | 7.8 µM | 1.3 µM | 5.8 µM | 2.88 |
| N#CC1CN1C(=O)Nc1ccc([N+](=O)[O-])cc1 (centres unmarked) [Compound 16, 2-Cyanoaziridine-1-[N-(4-nitrophenyl)]carboxamide] | 2.6 µM | 2.6 µM | 5.04 | 9.1 µM | 9.1 µM | 3.9 µM | 3.9 µM | 3 µM | 3 µM | 3 µM | 6.5 µM | 8.6 µM | 4.3 µM | 3.7 µM | 1.72 |
| N#CC1CN1C(=O)Nc1ccc(Cl)cc1Cl (centres unmarked) [Compound 17, 2-Cyanoaziridine-1-[N-(2,4-dichlorophenyl)]carboxamide] | 33 µM | 207 µM | 5.33 | 4.7 µM | 4.7 µM | 2.5 µM | > 39 µM | 1.1 µM | 0.9 µM | 0.35 µM | 35 µM | 9.4 µM | 2.2 µM | 1.9 µM | 3.42 |
| N#CC1CN1C(=O)Nc1ccc(Cl)c(Cl)c1 (centres unmarked) [Compound 18, 2-Cyanoaziridine-1-[N-(3,4-dichlorophenyl)]carboxamide] | 7.2 µM | 2.6 µM | 5.96 | 1.1 µM | 1.1 µM | 7.5 µM | 5.9 µM | 7.2 µM | 4.6 µM | 4.4 µM | 5.6 µM | 2.7 µM | 7 µM | 14 µM | 3.42 |
| CCOC(=O)c1ccc(NC(=O)N2CC2C#N)cc1 (centres unmarked) [Compound 19, 2-Cyanoaziridine-1-[N-(4-ethoxycarbonylphenyl)]carboxamide] | 9.7 µM | 9.7 µM |  |  | 3 µM | 2.9 µM | 5.8 µM | 2.1 µM | 2.3 µM | 3.3 µM | 7.7 µM | 3 µM | 2.5 µM | 4.2 µM |  |
| CC(=O)c1cccc(NC(=O)N2CC2C#N)c1 (centres unmarked) [Compound 20, 2-Cyanoaziridine-1-[N-(3-acetylphenyl)]carboxamide] | > 39 µM | > 39 µM |  |  | > 39 µM | > 41 µM | > 39 µM | > 16 µM | > 16 µM | > 16 µM | > 39 µM | > 39 µM | 40 µM | > 41 µM |  |
| CC(=O)Oc1ccccc1NC(=O)N1CC1C#N (centres unmarked) [Compound 21, 2-Cyanoaziridine-1-[N-(2-acetoxyphenyl)]carboxamide] | 7.9 µM | 9.6 µM | 5.06 | 8.7 µM | 8.7 µM | 5.6 µM | 7.9 µM | 3.2 µM | 3.6 µM | 3.5 µM | 10 µM | 9.6 µM | 3.3 µM | 9 µM | 1.45 |
| N#CC1CN1C(=O)Nc1ccc(S(N)(=O)=O)cc1 (centres unmarked) [Compound 22, 2-Cyanoaziridine-1-[N-(4-sulfamylphenyl)]carboxamide] | > 38 µM | > 38 µM |  |  | > 38 µM | > 38 µM | 188 µM | > 15 µM | > 15 µM | > 15 µM | 188 µM | > 38 µM | > 38 µM | > 38 µM |  |
| N#CC1CN1C(=O)Nc1cccc2ccccc12 (centres unmarked) [Compound 23, 2-Cyanoaziridine-1-[N-(1-naphthyl)]carboxamide] | 2.5 µM | 7.2 µM | 5.10 | 8 µM | 8 µM | 2.5 µM | 4.2 µM | 1.7 µM | 2 µM | 2 µM | 5.9 µM | 8.9 µM | 2.4 µM | 2.5 µM | 3.32 |
